Our source for the inhibition and Competition % values is patent publication US20120270237A9, “METHODS FOR THE IDENTIFICATION OF KINASE INTERACTING MOLECULES AND FOR THE PURIFICATION OF KINASE PROTEINS” (Cellzone AG, priority 2009, published 2012).

Experiment in all cases: Kinobeads competition binding, HeLa Placenta lysate mix
Holding throughout (parameters): endogenous in cells
What all share (details): 10 μM free compound

The target in one test is AMPKa1 (Homo sapiens, UniProt Q13131). The protocol: (§1) To one aliquot of cell lysate 10 μM of the free compound (FIG. 3, CZC31326) was added and allowed to bind to proteins in the lysate. Then the affinity matrix with the immobilized compound was added to capture proteins that were not interacting with the previously added free compound. Beads were separated from the lysate and bead bound proteins were eluted in SDS sample buffer and subsequently separated by SDS-Polyacrylamide gel electrophoresis (FIG. 10). Suitable gel bands were cut out and subjected to in-gel proteolytic digestion with trypsin. The second lysate aliquot was processed identically, however no free compound was added (DMSO solvent control). Peptides originating from samples 1 and 2 were labeled with iTRAQ reagents (iTRAQ 114 and iTRAQ 117) and the combined samples were analyzed with a nano-flow liquid chromatography system coupled online to a tandem mass spectrometer (LC-MS/MS) experiment followed by iTRAQ reporter ion quantification in the MS/MS spectra as described in Example 2.

The next test concerns the target JAK1 (Homo sapiens, UniProt P23458). How it is done:
as §1

The target of another test is FER (Homo sapiens, UniProt P16591). The protocol:
as §1

The target in another test is MAP2K6 (Homo sapiens, UniProt P52564). How it is done: as §1
Sequence of MAP2K6 (P52564 whole entry): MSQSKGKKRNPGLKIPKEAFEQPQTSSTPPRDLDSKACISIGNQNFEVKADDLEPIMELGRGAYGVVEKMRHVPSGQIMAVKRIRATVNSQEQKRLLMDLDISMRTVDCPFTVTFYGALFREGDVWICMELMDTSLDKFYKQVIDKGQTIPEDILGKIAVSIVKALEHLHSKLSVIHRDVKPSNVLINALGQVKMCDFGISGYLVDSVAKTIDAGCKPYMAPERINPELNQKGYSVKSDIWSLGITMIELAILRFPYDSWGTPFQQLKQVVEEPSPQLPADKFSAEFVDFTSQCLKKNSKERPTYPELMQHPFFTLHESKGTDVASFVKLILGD
The target of the next test is CDK5 (Homo sapiens, UniProt Q00535). The protocol: as §1
Sequence of CDK5 (Q00535 whole entry): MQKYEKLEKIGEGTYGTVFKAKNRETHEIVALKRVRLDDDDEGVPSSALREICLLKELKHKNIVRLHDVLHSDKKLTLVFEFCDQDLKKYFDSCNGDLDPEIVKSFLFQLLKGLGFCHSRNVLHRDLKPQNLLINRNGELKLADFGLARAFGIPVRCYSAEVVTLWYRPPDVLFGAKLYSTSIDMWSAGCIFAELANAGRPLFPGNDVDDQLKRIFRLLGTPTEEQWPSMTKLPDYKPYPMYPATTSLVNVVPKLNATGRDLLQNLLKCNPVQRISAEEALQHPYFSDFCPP
For the next test, the target named is MAP3K4 (Homo sapiens, UniProt Q9Y6R4). How it is done:
as §1

Another test has as its target IRE1 (Homo sapiens, UniProt O75460). The protocol: as §1
The target in the next test is IRAK3 (Homo sapiens, UniProt Q9Y616). How it is done:
as §1

The next test deals with MSK2 (Homo sapiens, UniProt O75676). How it is done: as §1
Sequence of MSK2 (O75676 whole entry): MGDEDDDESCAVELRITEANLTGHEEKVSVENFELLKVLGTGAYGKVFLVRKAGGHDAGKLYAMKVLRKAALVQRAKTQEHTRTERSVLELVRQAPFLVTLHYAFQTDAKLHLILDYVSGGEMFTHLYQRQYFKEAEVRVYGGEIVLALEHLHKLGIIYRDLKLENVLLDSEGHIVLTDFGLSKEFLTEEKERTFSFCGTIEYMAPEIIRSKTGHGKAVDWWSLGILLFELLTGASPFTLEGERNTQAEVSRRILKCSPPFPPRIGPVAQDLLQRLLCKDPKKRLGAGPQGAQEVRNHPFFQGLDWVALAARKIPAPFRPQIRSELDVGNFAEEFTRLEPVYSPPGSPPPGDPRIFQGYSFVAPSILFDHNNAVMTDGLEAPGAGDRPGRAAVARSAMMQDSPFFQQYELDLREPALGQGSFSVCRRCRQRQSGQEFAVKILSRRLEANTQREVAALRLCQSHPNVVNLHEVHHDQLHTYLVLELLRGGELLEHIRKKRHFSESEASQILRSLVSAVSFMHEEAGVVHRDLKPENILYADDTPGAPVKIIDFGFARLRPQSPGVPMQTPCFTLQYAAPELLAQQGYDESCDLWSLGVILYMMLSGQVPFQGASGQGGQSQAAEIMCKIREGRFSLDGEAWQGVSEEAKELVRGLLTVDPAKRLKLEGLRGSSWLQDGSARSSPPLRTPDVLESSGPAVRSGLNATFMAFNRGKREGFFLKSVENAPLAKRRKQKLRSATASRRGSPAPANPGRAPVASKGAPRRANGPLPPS
For the next test, the target named is T1, TAO3 (Homo sapiens, UniProt Q9H2K8).
T1 sequence (Q9H2K8 1-898): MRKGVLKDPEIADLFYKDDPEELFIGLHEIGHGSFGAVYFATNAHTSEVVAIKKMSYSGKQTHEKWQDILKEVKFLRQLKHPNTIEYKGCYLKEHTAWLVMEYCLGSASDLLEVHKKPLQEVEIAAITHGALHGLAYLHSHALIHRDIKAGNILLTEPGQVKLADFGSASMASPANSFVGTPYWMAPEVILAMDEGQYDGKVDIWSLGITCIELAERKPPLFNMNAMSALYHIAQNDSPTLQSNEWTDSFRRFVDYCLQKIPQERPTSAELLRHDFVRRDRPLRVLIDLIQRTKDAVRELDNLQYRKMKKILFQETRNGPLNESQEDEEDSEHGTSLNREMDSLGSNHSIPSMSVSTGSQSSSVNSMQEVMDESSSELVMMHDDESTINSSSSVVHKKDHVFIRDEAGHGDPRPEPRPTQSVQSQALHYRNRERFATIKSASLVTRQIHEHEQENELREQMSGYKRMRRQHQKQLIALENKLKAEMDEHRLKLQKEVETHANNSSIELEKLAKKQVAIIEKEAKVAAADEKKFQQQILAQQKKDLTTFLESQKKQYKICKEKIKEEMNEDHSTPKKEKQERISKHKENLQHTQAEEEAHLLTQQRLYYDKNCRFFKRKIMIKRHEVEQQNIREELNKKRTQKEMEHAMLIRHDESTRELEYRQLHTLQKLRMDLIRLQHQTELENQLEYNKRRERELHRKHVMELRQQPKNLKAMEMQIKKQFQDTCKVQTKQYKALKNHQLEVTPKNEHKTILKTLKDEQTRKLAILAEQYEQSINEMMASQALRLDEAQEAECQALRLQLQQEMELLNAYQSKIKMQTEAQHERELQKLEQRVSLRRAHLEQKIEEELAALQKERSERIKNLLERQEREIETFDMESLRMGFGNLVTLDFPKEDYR
How it is done:
as §1

Another test concerns the target MARK2 (Homo sapiens, UniProt Q7KZI7). How it is done:
as §1

The next test addresses T2, NEK3 (Homo sapiens, UniProt P51956).
T2 sequence (P51956 1-506): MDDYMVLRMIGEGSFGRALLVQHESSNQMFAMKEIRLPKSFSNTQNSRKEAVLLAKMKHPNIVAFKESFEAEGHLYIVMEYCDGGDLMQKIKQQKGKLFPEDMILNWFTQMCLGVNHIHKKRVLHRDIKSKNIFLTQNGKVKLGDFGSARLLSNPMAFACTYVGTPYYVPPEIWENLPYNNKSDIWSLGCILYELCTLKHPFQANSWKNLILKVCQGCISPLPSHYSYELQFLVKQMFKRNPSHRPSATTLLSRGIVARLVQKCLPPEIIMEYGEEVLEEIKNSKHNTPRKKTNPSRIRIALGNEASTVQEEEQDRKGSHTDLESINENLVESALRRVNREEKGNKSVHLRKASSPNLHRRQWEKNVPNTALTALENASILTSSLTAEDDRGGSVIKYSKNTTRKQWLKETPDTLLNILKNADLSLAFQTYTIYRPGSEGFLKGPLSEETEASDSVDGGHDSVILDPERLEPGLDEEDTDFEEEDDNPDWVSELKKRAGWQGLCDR
How it is done: as §1

Sequence of MAP3K4 (Q9Y6R4 whole entry): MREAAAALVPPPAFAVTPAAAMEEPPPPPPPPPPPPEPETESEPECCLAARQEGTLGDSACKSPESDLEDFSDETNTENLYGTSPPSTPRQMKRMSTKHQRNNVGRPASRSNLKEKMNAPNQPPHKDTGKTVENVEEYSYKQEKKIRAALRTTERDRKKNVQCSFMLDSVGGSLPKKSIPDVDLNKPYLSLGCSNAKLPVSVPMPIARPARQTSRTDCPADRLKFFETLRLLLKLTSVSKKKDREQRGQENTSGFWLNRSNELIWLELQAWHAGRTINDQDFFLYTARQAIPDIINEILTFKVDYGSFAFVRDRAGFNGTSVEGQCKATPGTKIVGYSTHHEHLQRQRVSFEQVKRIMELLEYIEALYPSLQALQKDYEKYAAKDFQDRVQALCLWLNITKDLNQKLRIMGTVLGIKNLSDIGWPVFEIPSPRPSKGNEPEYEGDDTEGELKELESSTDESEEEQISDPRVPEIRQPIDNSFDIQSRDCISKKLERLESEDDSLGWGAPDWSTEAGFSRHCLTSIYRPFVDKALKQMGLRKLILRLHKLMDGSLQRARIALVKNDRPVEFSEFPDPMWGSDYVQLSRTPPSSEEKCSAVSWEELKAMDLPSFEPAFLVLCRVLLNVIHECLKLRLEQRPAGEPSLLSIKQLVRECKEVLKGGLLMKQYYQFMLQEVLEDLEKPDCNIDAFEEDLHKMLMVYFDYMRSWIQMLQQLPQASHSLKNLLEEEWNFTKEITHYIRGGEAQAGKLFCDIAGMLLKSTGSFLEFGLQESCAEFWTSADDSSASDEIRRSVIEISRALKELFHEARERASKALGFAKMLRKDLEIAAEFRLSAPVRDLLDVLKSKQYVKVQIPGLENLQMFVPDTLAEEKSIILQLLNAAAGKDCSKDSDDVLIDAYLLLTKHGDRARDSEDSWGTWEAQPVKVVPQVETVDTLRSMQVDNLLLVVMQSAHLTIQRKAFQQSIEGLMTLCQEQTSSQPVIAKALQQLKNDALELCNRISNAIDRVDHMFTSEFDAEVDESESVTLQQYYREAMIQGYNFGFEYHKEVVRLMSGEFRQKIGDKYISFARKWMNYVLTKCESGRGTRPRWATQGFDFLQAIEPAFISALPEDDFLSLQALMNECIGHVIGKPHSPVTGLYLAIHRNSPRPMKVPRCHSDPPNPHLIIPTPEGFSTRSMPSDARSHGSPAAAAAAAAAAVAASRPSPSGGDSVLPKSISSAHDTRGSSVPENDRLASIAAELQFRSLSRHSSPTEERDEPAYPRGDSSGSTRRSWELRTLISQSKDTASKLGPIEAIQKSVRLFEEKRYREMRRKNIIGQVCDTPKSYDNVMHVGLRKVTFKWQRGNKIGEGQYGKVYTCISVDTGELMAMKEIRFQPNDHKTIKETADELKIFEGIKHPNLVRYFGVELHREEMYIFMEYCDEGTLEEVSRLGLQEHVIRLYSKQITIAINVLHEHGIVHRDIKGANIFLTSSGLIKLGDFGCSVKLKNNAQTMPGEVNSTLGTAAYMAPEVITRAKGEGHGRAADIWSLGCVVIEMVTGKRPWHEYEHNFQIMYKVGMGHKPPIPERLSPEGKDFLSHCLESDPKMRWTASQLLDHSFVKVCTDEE
Sequence of JAK1 (P23458 whole entry): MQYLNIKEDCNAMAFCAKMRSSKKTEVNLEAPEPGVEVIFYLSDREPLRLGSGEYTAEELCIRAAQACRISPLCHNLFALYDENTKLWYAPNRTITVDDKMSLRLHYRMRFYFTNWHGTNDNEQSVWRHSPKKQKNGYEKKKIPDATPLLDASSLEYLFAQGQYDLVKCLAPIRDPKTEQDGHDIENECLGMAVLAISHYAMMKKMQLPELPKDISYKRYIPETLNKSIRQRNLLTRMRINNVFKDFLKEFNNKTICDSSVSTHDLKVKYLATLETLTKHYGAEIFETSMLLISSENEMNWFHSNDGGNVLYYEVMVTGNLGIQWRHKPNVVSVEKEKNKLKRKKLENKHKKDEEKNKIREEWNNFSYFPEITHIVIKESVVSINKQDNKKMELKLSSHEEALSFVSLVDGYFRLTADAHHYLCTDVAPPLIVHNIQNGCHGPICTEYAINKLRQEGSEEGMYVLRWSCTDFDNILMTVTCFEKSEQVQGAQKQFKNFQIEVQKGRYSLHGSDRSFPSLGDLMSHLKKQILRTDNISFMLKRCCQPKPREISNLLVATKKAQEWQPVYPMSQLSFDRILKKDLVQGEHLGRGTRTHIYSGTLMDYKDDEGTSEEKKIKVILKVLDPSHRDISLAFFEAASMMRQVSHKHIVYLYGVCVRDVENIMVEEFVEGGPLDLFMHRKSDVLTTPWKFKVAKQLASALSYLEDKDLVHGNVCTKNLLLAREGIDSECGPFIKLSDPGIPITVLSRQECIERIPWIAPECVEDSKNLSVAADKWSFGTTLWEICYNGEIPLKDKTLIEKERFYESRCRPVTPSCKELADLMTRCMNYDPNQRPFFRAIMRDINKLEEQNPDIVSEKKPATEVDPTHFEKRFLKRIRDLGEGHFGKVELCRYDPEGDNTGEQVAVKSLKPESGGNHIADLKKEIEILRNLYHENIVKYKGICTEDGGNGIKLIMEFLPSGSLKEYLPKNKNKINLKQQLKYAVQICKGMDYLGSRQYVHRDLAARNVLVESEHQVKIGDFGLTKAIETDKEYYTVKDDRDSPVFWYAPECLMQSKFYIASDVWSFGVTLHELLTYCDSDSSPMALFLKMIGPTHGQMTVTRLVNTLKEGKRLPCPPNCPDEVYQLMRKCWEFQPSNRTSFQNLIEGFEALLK
Sequence of IRAK3 (Q9Y616 whole entry): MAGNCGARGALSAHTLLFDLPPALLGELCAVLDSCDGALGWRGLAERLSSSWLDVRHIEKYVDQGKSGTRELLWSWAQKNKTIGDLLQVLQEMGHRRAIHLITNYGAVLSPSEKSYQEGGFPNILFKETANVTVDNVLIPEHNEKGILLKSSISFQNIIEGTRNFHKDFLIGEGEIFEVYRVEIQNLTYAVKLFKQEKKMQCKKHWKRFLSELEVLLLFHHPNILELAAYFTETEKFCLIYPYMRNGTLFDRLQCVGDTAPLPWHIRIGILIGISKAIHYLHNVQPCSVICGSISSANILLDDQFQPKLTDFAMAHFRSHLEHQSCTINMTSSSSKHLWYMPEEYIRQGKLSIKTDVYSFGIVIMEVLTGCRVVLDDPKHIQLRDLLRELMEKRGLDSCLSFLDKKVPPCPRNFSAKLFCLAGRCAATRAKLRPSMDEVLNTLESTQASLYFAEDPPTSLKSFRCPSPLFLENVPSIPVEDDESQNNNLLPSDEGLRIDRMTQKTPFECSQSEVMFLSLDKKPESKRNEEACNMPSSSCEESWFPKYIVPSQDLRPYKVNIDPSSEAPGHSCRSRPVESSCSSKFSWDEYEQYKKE

As to `CS(=O)(=O)Nc1ccccc1Nc1nc(Nc2cccc(OCCN)c2)ncc1Cl` [CZC31326, N-(2-(2-(3-(2-aminoethoxy)phenylamino)-5-chloropyrimidin-4-ylamino)phenyl)methanesulfonamide], the inhibition – broadly, the change of the read-out against control, counted positive when it falls – at 10 µM on AMPKa1 turned out to be 94.9%; at FER it was 95.3%; on MAP2K6 it was 89.2%; at CDK5 it was 92.6%; on MAP3K4, 92.2%; at IRE1 it was 91.8%. Besides, the inhibition at 10 µM was found to be 92% on IRAK3; 95.3% on MSK2; 94.4% at TAO3; 93.7% at MARK2; 94.8% at NEK3. In addition, at JAK1, the Competition % is reported as 95%.
